Measured values from patent publication US11136325B2, “Pyrrolopyrimidine and pyrrolopyridine derivatives” (GALAPAGOS NV, priority 2017, dated 2021).

Each compound was assayed on ASK1/2 (phospho-MKK3 in H2O2-stimulated PBMCs) (assay: ASK1/2 cellular assay: phospho-MKK3 in H2O2-stimulated PBMCs, western blot). Details: PBMC, 0.5 h, 3 mM H2O2, 30 min, read-out: Inhibition (pIC50) (converted).
Assay type: cell-based
Protocol: ASK1/2 activity in vitro was assayed by determining the quantity of phospho-MKK3 protein in H2O2-stimulated PBMCs, using western blot method.
• Lymphoprep (Axis-Shield, Cat. No. 1114545) • Ammonium chloride lysate buffer pH 7.4 (10× concentrated): • NH4Cl—final conc. 1.5 M (Kemika, Cat. No. 0137407) • NaHCO3— final conc. 100 mM (Kemika, Cat. No. 1411007) • Na2EDTA—final conc. 10 mM (Sigma Aldrich; Cat. No. E-4884) • RPMI 1640 (Lonza Cat. No. BE12-115F/U1) • FBS (Sigma Cat. No. F7524, heat inactivated 30′/56° C.) • Dimethyl sulfoxide (DMSO) (Sigma, Cat. No. D2650) • Cell lysis buffer (pH 7.4): PBS+1% Triton X-100 (Sigma Aldrich; Cat. No. X100)—10 ml • Phospho-Stop—1 tablet (Sigma, Cat. No. 4693124001) • Protease Inhibitor—1 tablet (Sigma, Cat. No. 4906837001) • Hydrogen peroxide solution 3% w/w (Sigma Aldrich, Cat. No. H-6520) • PBS (Sigma Aldrich, Cat. No. P4417-100TAB) • Microplate, 96 well, pp, v-bottom, clear (Greiner bio-one; Cat. No. 651201) • Tissue culture plate, 6 well, flat bottom with low evaporation lid (Falcon, Cat. No. 353224) • 50 mL falcon tube (TPP, Cat. No. 91050) • Pierce BCA Protein Assay Kit (Thermo Scientific, Cat. No. 23225) • Immulon® Microtiter™ 96-Well Plate 1B (Thermo Scientific, Cat. No. 3355) • Wes 12-230 kDa Master Kit (Protein Simple, Cat. No. PS-MK14) • MKK3 (D4C3) Rabbit mAb (Cell Signaling, Cat. No. 8535) • Phospho-MKK3 (Ser189)/MKK6 (Ser207) (D8E9) Rabbit mAb (Cell Signaling, Cat. No. 12280)
The assay was configured to run using the following conditions: Tested compounds concentration range: 1-0.0014 μM (7 three-fold serial dilutions); H2O2 concentration: 3 mM
To isolate the PBMCs from buffy coat, the buffy coat was diluted 1:1 in PBS, then the dilute buffy-coat (25 mL) was carefully pipetted on top of 20 mL of Lymphoprep in a falcon tube. The tubes were then spun for 35 min at 400×g. The upper plasma layer is then carefully removed leaving the layer containing the MNCs. The layer containing the MNCs is then transferred to a new tube, PBS is added up to a total volume of 50 mL and the tube is then spun for 10 minutes (200×g, 25° C.). The resulting pellet is then resuspended in 2 mL PBS, the washing step was repeated. The final pellets were resuspended in ammonium chloride lysate buffer up to 50 mL, mixed gently and centrifuged for 10 minutes (200×g, 25° C.), resuspended in 2-3 mL of cell medium and diluted up to 50 mL in cell medium. The cell density of a 1/20 dilution in cell medium was determined using an automated cell counter.
10×10^6 PBMCs were seeded per well in 1 mL of RPMI 1640 cell medium supplemented with 10% FBS in 6-well plates. Seven sets of three-fold serial dilutions of compounds in DMSO starting from 1 mM in 96-well v-bottom plate were prepared. The DMSO compound solutions were diluted 100× in the cell medium. 200 μL of 100× diluted compound solution were added per well, control wells contained 200 μL of 1% DMSO prepared in cell medium. 7.5 mM H2O2 in cell medium was prepared and 800 μL was added to each well, except the negative control well to which 800 μL of cell medium was added. The cells were incubated for 30 min at 37° C., 5% CO2, 95% humidity. The cells were transferred to 2 mL Eppendorf tubes and centrifuged for 10 minutes at 300×g at 4° C., they were then washed with 1 mL PBS, the cell pellet was resuspended in 100 μL of lysis buffer and incubated on ice for 30 minutes. After which time the cell lysates were centrifuged for 5 minutes at 10000×g at 4° C. and the supernatants were then stored at −20° C.
Samples were diluted 5× in cell lysis buffer and total protein concentration was determined in 96-well Immulon 1B plate using BCA Protein Assay Kit following manufacturer's instructions.
Western blot assay was performed using Protein Simple Wes Master Kit and device, following manufacturer's instructions. 0.5 mg/mL of total proteins was loaded per sample; phospho-MKK3 and MKK3 antibodies were diluted 300×. […]

Row | SMILES | IC50 [nM]
1 | Cc1cnc(N)cc1C(=O)NC1CCN(c2ncnc3[nH]cc(C)c23)CC1 [Compound 2, 2-amino-5-methyl-N-[1-(5-methyl-7H-pyrrolo[2,3-d]pyrimidin-4-yl)-4-piperidyl]pyridine-4-carboxamide] | 3.16
2 | Nc1cc(C(=O)NC2CCN(c3ncnc4[nH]cc(Cl)c34)CC2)c(F)cn1 [Compound 5, 2-amino-N-[1-(5-chloro-7H-pyrrolo[2,3-d]pyrimidin-4-yl)-4-piperidyl]-5-fluoro-pyridine-4-carboxamide] | 6.31
3 | Nc1cc(C(=O)NC2CCN(c3ncnc4[nH]cc(Cl)c34)CC2)ccn1 [Compound 4, 2-amino-N-[1-(5-chloro-7H-pyrrolo[2,3-d]pyrimidin-4-yl)-4-piperidyl]pyridine-4-carboxamide] | 7.94
4 | Cc1c[nH]c2ncnc(N3CCC(NC(=O)c4cc(N)ncc4F)CC3)c12 [Compound 1, 2-amino-5-fluoro-N-[1-(5-methyl-7H-pyrrolo[2,3-d]pyrimidin-4-yl)-4-piperidyl]pyridine-4-carboxamide] | 8.91
5 | Nc1cc(C(=O)NC2CCN(c3ccnc4[nH]cc(Cl)c34)CC2)c(F)cn1 [Compound 7, 2-amino-N-[1-(3-chloro-1H-pyrrolo[2,3-b]pyridin-4-yl)-4-piperidyl]-5-fluoro-pyridine-4-carboxamide] | 12.6
6 | Cc1c[nH]c2ncc(C#N)c(N3CCC(NC(=O)c4cc(N)ncc4F)CC3)c12 [Compound 6, 2-amino-N-[1-(5-cyano-3-methyl-1H-pyrrolo[2,3-b]pyridin-4-yl)-4-piperidyl]-5-fluoro-pyridine-4-carboxamide] | 12.6
7 | Cc1c[nH]c2ncnc(N3CCC(NC(=O)c4cc(N)ncc4Cl)CC3)c12 [Compound 3, 2-amino-5-chloro-N-[1-(5-methyl-7H-pyrrolo[2,3-d]pyrimidin-4-yl)-4-piperidyl]-pyridine-4-carboxamide] | 39.8
